The text below walks through data of PubChem BioAssay (NCI).

Among the test systems are KM12 colon; A549 NSCLC; SNB-75 CNS; U251 CNS; MDA-N; SW-620 colon; OVCAR-4 ovarian; OVCAR-8 ovarian; MDA-MB-435; SK-MEL-2 melanoma.
What all share (test): NCI tumour cell line growth inhibition, 48 h

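48-hour exposure; five concentrations; linearly interpolated endpoints. TGI marks complete inhibition of growth.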

For the compound `Cc1nc2sc3ccccc3n2c(=O)c1N=Nc1ccc(Cl)cc1`, the TGI in the assay on KM12 colon, in the assay on A549 NSCLC, with SNB-75 CNS, in the assay with U251 CNS, in the assay with MDA-N and in the assay on SW-620 colon was above 100 µM in each case. For the same compound, the TGI in the assay with OVCAR-4 ovarian, in the assay on OVCAR-8 ovarian, in the assay with MDA-MB-435 and in the assay with SK-MEL-2 melanoma was above 100 µM each time.
As to `COc1ccc(NS(=O)(=O)c2ccc(NC(NC(=O)CC(C)C)(C(F)(F)F)C(F)(F)F)cc2)nn1`, the TGI in the assay on KM12 colon, with A549 NSCLC, in the assay with SNB-75 CNS, in the assay on U251 CNS, in the assay on MDA-N and in the assay with SW-620 colon was above 100 µM each time. The TGI in the assay on OVCAR-4 ovarian, in the assay with OVCAR-8 ovarian, with MDA-MB-435 and in the assay on SK-MEL-2 melanoma was above 100 µM in each case.
For `COc1nc2nccnc2c(=O)n1C`, the TGI in the assay on KM12 colon, in the assay on A549 NSCLC, with SNB-75 CNS, with U251 CNS, with MDA-N and in the assay with SW-620 colon was above 10 µM in each case. Further, the TGI with OVCAR-4 ovarian, in the assay with OVCAR-8 ovarian, with MDA-MB-435 and with SK-MEL-2 melanoma was above 10 µM in each case.
Take `COc1ccc(/C=C2\N=C(SC)NC2=O)cc1`: the TGI in the assay with KM12 colon, in the assay on A549 NSCLC, in the assay with SNB-75 CNS, in the assay on U251 CNS, in the assay with MDA-N and with SW-620 colon was above 100 µM in each case. Also, the TGI in the assay with OVCAR-4 ovarian, in the assay with OVCAR-8 ovarian, with MDA-MB-435 and in the assay with SK-MEL-2 melanoma was above 100 µM throughout.
Turning to `NC(CCC(=O)NC(CSCC1C(=O)Nc2ccccc21)C(=O)NCC(=O)O)C(=O)O` (configuration not stated), the TGI was above 32.9 µM in the assay on KM12 colon; 19.7 µM in the assay with A549 NSCLC; 8.2 µM in the assay with SNB-75 CNS; 18.3 µM with U251 CNS; 16.7 µM in the assay with MDA-N; 10.7 µM in the assay with SW-620 colon. In addition, the TGI is above 22.2 µM in the assay with OVCAR-4 ovarian, 13.4 µM in the assay with OVCAR-8 ovarian, 14.8 µM in the assay on MDA-MB-435 and 25.4 µM in the assay with SK-MEL-2 melanoma.
Regarding `CCN1CCC(O)(/C=C/c2ccc(C)cc2C)C(C(=O)/C=C/c2ccc(C)cc2C)C1` (configuration not stated), the TGI in the assay with A549 NSCLC was 11.1 µM; in the assay on SNB-75 CNS, 36.6 µM; with U251 CNS, 11.7 µM; in the assay with MDA-N, 6.26 µM; in the assay with SW-620 colon, 10.4 µM; with OVCAR-4 ovarian, 7.99 µM. Moreover, the TGI came to 5.08 µM with OVCAR-8 ovarian, 7.95 µM in the assay on MDA-MB-435 and 11.1 µM in the assay on SK-MEL-2 melanoma.
As for `Nc1nc(Cl)cc(NCC2(CO)CCCC2)n1`, the TGI in the assay on KM12 colon, in the assay on A549 NSCLC, in the assay on SNB-75 CNS, in the assay on U251 CNS, in the assay on MDA-N and in the assay with SW-620 colon was above 100 µM throughout. The TGI in the assay with OVCAR-4 ovarian, in the assay with OVCAR-8 ovarian, in the assay on MDA-MB-435 and in the assay with SK-MEL-2 melanoma was above 100 µM each time.
For `C=CC[C@]12C=C(OC)[C@@H](O)[C@](OC)(C(c3cc(OC)c4c(c3)OCO4)[C@H]1C)[C@H]2OC(C)=O` (some centres not stated), the TGI in the assay on KM12 colon, with A549 NSCLC, with SNB-75 CNS, in the assay with U251 CNS, in the assay on MDA-N and with SW-620 colon was above 100 µM each time. Besides, the TGI in the assay on OVCAR-4 ovarian, in the assay on OVCAR-8 ovarian, with MDA-MB-435 and in the assay with SK-MEL-2 melanoma was above 100 µM throughout.
Consider `N#CC1=C(N)N(c2ccccc2)C(c2ccccc2)C1(C#N)C#N` (configuration not stated), for which the TGI with KM12 colon was 30.9 µM; in the assay with A549 NSCLC, 45.2 µM; with SNB-75 CNS, 42 µM; in the assay with U251 CNS it was 32.4 µM; with MDA-N, 41 µM; with SW-620 colon, 37.2 µM. The TGI is 51.1 µM in the assay with OVCAR-4 ovarian, 33.5 µM in the assay with OVCAR-8 ovarian, 35.6 µM in the assay with MDA-MB-435 and 42.9 µM with SK-MEL-2 melanoma.
For the compound `CC(C)(Cl)C(Br)CCC(=CCCl)CBr` (mixture of isomers), the TGI in the assay with KM12 colon was 4.04 µM; in the assay on A549 NSCLC it was 32.8 µM; with SNB-75 CNS, 8.18 µM; in the assay with U251 CNS it was 5.59 µM; with MDA-N, 3.28 µM; in the assay with SW-620 colon, 4.43 µM. Moreover, the TGI was 5.31 µM in the assay on OVCAR-4 ovarian, 5.26 µM with OVCAR-8 ovarian, 3.71 µM in the assay on MDA-MB-435 and 9.93 µM in the assay on SK-MEL-2 melanoma.
As for `CC(=O)OCC1OC(n2c3c(cc(C#N)c2=S)CCCCC3)C(OC(C)=O)C(OC(C)=O)C1OC(C)=O` (configuration not stated), the TGI with KM12 colon, with A549 NSCLC, in the assay with SNB-75 CNS, with U251 CNS, with MDA-N and with OVCAR-4 ovarian was above 100 µM in each case. For the same compound, the TGI with OVCAR-8 ovarian, in the assay on MDA-MB-435 and with SK-MEL-2 melanoma was above 100 µM in each case.
On to `C=CCOc1ccc(C2C(C(=O)OCC)C(=O)CC(C)(O)C2C(=O)OCC)cc1OC` (configuration not stated), for which the TGI in the assay on KM12 colon, with A549 NSCLC, in the assay on SNB-75 CNS, in the assay with U251 CNS, with MDA-N and in the assay on SW-620 colon was above 100 µM each time. The TGI in the assay on OVCAR-4 ovarian, in the assay on OVCAR-8 ovarian, in the assay with MDA-MB-435 and in the assay on SK-MEL-2 melanoma was above 100 µM each time.
For `CC(C)CC(O)P(=O)(O)O` (configuration not stated), the TGI in the assay on KM12 colon, with A549 NSCLC, in the assay on SNB-75 CNS, in the assay on U251 CNS, in the assay on MDA-N and with SW-620 colon was above 100 µM each time. The TGI in the assay with OVCAR-4 ovarian, in the assay on MDA-MB-435 and in the assay with SK-MEL-2 melanoma was above 100 µM throughout.
